Reference: PubChem BioAssay AID330 (DTP/NCI, 2004)
Values joined by “and” are separate entries in the source; they are usually repeats but may differ in a detail not shown here. Equal values may be shown once. Inconclusive results and toxic doses are left out.

Tested on: P388 leukemia ip, CD2F1 mice, survival T/C
Experiment: NCI In Vivo Anticancer Drug Screen. Data for tumor model P388 Leukemia (intraperitoneal) in CD2F1 (CDF1) mice
Conditions: endpoint: median survival time, higher = longer survival
Outline: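 Mice carrying the transplanted tumor received test compound or vehicle. Survival was recorded in each group, and the value is the treated-group measurement divided by that of the vehicle-treated control group.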

[1] = dose: 6.25 mg/kg/injection, schedule: Q01DX009 (ip), vehicle: saline with Tween-80
[2] = dose: 12.5 mg/kg/injection, schedule: Q01DX009 (ip), vehicle: saline with Tween-80
[3] = dose: 60.0 mg/kg/injection, schedule: Q01DX005 (ip), vehicle: saline with Tween-80
[4] = dose: 120.0 mg/kg/injection, schedule: Q01DX005 (ip), vehicle: saline with Tween-80
[5] = dose: 50.0 mg/kg/injection, schedule: Q04DX002 (ip), vehicle: saline with Tween-80
[6] = dose: 50.0 mg/kg/injection, schedule: Q01DX009 (ip), vehicle: saline with Tween-80
[7] = dose: 100.0 mg/kg/injection, schedule: Q01DX009 (ip), vehicle: saline with Tween-80
[8] = dose: 200.0 mg/kg/injection, schedule: Q01DX009 (ip), vehicle: saline with Tween-80
[9] = dose: 25.0 mg/kg/injection, schedule: Q01DX009 (ip), vehicle: saline with Tween-80

ClCC#CCCl
T/C [1]: 102 % of control
T/C [2]: 99 % of control

CC1(C)OC2OC3COP(=O)(c4ccccc4)C3(CC#N)C2O1 (configuration not stated)
T/C [3]: 94 % of control
T/C [4]: 99 % of control
T/C (dose: 240.0 mg/kg/injection, schedule: Q01DX005 (ip), vehicle: saline with Tween-80): 98 % of control

O=C1c2cc(I)ccc2NC(O)c2cccn21 (configuration not stated)
T/C (dose: 0.1 mg/kg/injection, schedule: Q01DX005 (ip), vehicle: water): 93 % of control
T/C (dose: 0.2 mg/kg/injection, schedule: Q01DX005 (ip), vehicle: water): 93 % of control
T/C (dose: 0.4 mg/kg/injection, schedule: Q01DX005 (ip), vehicle: water): 99 % of control
T/C (dose: 0.8 mg/kg/injection, schedule: Q01DX005 (ip), vehicle: water): 100 % of control
T/C (dose: 1.6 mg/kg/injection, schedule: Q01DX005 (ip), vehicle: water): 96 % of control
T/C (dose: 5.0 mg/kg/injection, schedule: Q01DX005 (ip), vehicle: distilled water + Tween-80): 94 % of control
T/C (dose: 10.0 mg/kg/injection, schedule: Q01DX005 (ip), vehicle: distilled water + Tween-80): 100 % of control
T/C (dose: 20.0 mg/kg/injection, schedule: Q01DX005 (ip), vehicle: distilled water + Tween-80): 99 % of control
T/C (dose: 40.0 mg/kg/injection, schedule: Q01DX005 (ip), vehicle: distilled water + Tween-80): 92 % of control
T/C (dose: 80.0 mg/kg/injection, schedule: Q01DX005 (ip), vehicle: distilled water + Tween-80): 93 % of control

O=C(NC(=O)c1c(F)cccc1F)Nc1ccc(Cl)cn1
T/C [5]: 95 % of control
T/C (dose: 100.0 mg/kg/injection, schedule: Q04DX002 (ip), vehicle: saline with Tween-80): 100 % of control
T/C (dose: 200.0 mg/kg/injection, schedule: Q04DX002 (ip), vehicle: saline with Tween-80): 98 % of control

Cc1ccc(NC(=O)C2C(=O)N(c3ccc(C)c(C)c3)C(=O)C2N=N)cc1C (configuration not stated)
T/C (dose: 100.0 mg/kg/injection, schedule: Q01DX001 (ip), vehicle: saline with Tween-80): 100 % of control
T/C (dose: 200.0 mg/kg/injection, schedule: Q01DX001 (ip), vehicle: saline with Tween-80): 101 % of control
T/C (dose: 400.0 mg/kg/injection, schedule: Q01DX001 (ip), vehicle: saline with Tween-80): 91 % of control

CCOC(/C=C/c1ccccc1)OCC
T/C (dose: 100.0 mg/kg/injection, schedule: Q04DX003 (ip), vehicle: saline): 104 % of control
T/C (dose: 200.0 mg/kg/injection, schedule: Q04DX003 (ip), vehicle: saline): 104 % of control

NS(=O)(=O)c1cc(C(=O)O)cc(NC(=O)CCCCl)c1Oc1ccccc1
T/C [6]: 103 % of control and 123 % of control
T/C [7]: 100 % of control and 96 % of control
T/C [8]: 104 % of control and 123 % of control

O=C1c2ccccc2C(=Cc2cccnc2)c2ccccc21
T/C [1]: 94 % of control
T/C [2]: 105 % of control
T/C [9]: 102 % of control
T/C [6]: 91 % of control

O=c1[nH]c(=O)n(C2OC(CO)C(O)C2O)c(=O)[nH]1 (configuration not stated)
T/C (dose: 60.0 mg/kg/injection, schedule: Q01DX005 (ip), vehicle: saline): 100 % of control
T/C (dose: 120.0 mg/kg/injection, schedule: Q01DX005 (ip), vehicle: saline): 95 % of control
T/C (dose: 240.0 mg/kg/injection, schedule: Q01DX005 (ip), vehicle: saline): 96 % of control

O=CNCC(=O)O
T/C (dose: 50.0 mg/kg/injection, schedule: Q01DX009 (ip), vehicle: saline): 101 % of control
T/C (dose: 100.0 mg/kg/injection, schedule: Q01DX009 (ip), vehicle: saline): 97 % of control
T/C (dose: 200.0 mg/kg/injection, schedule: Q01DX009 (ip), vehicle: saline): 99 % of control

NC(CC(C(=O)O)c1ccccc1)C(=O)O (configuration not stated)
T/C [6]: 106 % of control
T/C [7]: 94 % of control
T/C [8]: 94 % of control

CCCCCn1cnc2cc(N3CCOCC3)c([N+](=O)[O-])cc2c1=O
T/C (dose: 100.0 mg/kg/injection, schedule: Q04DX003 (ip), vehicle: Klucel (hydroxypropylcellulose) (HPC)): 103 % of control
T/C (dose: 200.0 mg/kg/injection, schedule: Q04DX003 (ip), vehicle: Klucel (hydroxypropylcellulose) (HPC)): 96 % of control
T/C (dose: 400.0 mg/kg/injection, schedule: Q04DX003 (ip), vehicle: Klucel (hydroxypropylcellulose) (HPC)): 96 % of control

Cc1ccc([NH-])c([NH-])c1.[Cl][Pt+2][Cl]
T/C (dose: 1.56 mg/kg/injection, schedule: Q04DX002 (ip), vehicle: saline with Tween-80): 105 % of control and 108 % of control
T/C (dose: 3.12 mg/kg/injection, schedule: Q04DX002 (ip), vehicle: saline with Tween-80): 110 % of control
T/C (dose: 25.0 mg/kg/injection, schedule: Q04DX002 (ip), vehicle: saline with Tween-80): 150 % of control
T/C [5]: 159 % of control

CC[C@@H]1O[C@H]2O[C@@H](/C=C/C=C/C=C/c3oc(=O)cc(OC)c3C)[C@@H](O)[C@@]2(C)[C@]1(C)O
T/C (dose: 0.5 mg/kg/injection, schedule: Q01DX009 (ip), vehicle: Klucel (hydroxypropylcellulose) (HPC)): 107 % of control
T/C (dose: 1.0 mg/kg/injection, schedule: Q01DX009 (ip), vehicle: Klucel (hydroxypropylcellulose) (HPC)): 106 % of control
T/C (dose: 2.0 mg/kg/injection, schedule: Q01DX009 (ip), vehicle: Klucel (hydroxypropylcellulose) (HPC)): 98 % of control

COC(=O)C1=C/CCCN(C=O)/C=C\1C(=O)OC
T/C (dose: 100.0 mg/kg/injection, schedule: Q04DX003 (ip), vehicle: alcohol): 103 % of control
T/C (dose: 200.0 mg/kg/injection, schedule: Q04DX003 (ip), vehicle: alcohol): 103 % of control
T/C (dose: 400.0 mg/kg/injection, schedule: Q04DX003 (ip), vehicle: alcohol): 103 % of control

CCOC(=O)c1ccc(NC(=O)Nc2ccccc2OC)cc1
T/C (dose: 3.75 mg/kg/injection, schedule: Q01DX005 (ip), vehicle: Klucel (hydroxypropylcellulose) (HPC)): 94 % of control
T/C (dose: 7.5 mg/kg/injection, schedule: Q01DX005 (ip), vehicle: Klucel (hydroxypropylcellulose) (HPC)): 97 % of control
T/C (dose: 15.0 mg/kg/injection, schedule: Q01DX005 (ip), vehicle: Klucel (hydroxypropylcellulose) (HPC)): 92 % of control
T/C (dose: 60.0 mg/kg/injection, schedule: Q01DX005 (ip), vehicle: Klucel (hydroxypropylcellulose) (HPC)): 88 % of control
T/C (dose: 240.0 mg/kg/injection, schedule: Q01DX005 (ip), vehicle: Klucel (hydroxypropylcellulose) (HPC)): 86 % of control

NS(=O)(=O)/C=C(\Cl)c1ccccc1
T/C [9]: 102 % of control
T/C [6]: 94 % of control
T/C [7]: 94 % of control

CCCCCCCCCCCCCCCCCC[N+]1([O-])CCCC1
T/C (dose: 50.0 mg/kg/injection, schedule: Q01DX009 (ip), vehicle: water): 93 % of control

C#CCn1cc(F)c(=O)n(CC#C)c1=O
T/C (dose: 30.0 mg/kg/injection, schedule: Q04DX002 (ip), vehicle: saline with Tween-80): 101 % of control
T/C (dose: 60.0 mg/kg/injection, schedule: Q04DX002 (ip), vehicle: saline with Tween-80): 99 % of control
T/C (dose: 120.0 mg/kg/injection, schedule: Q04DX002 (ip), vehicle: saline with Tween-80): 98 % of control
T/C (dose: 150.0 mg/kg/injection, schedule: Q04DX002 (ip), vehicle: saline with Tween-80): 107 % of control
T/C (dose: 240.0 mg/kg/injection, schedule: Q04DX002 (ip), vehicle: saline with Tween-80): 100 % of control
T/C (dose: 300.0 mg/kg/injection, schedule: Q04DX002 (ip), vehicle: saline with Tween-80): 104 % of control
T/C (dose: 600.0 mg/kg/injection, schedule: Q04DX002 (ip), vehicle: saline with Tween-80): 98 % of control

C=CC1(C)CCOC(=O)C1 (configuration not stated)
T/C [3]: 94 % of control
T/C [4]: 97 % of control

S=C(Nc1ccccc1)SSC(Cl)(Cl)Cl
T/C (dose: 12.5 mg/kg/injection, schedule: Q01DX009 (ip), vehicle: saline + Tween-80 + alcohol): 93 % of control
T/C (dose: 25.0 mg/kg/injection, schedule: Q01DX009 (ip), vehicle: saline + Tween-80 + alcohol): 94 % of control
T/C (dose: 50.0 mg/kg/injection, schedule: Q01DX009 (ip), vehicle: saline + Tween-80 + alcohol): 109 % of control
T/C [6]: 117 % of control
T/C [7]: 114 % of control

COc1ccc(/C=C/C(=O)OC2CC34CCNC35CC(OC5(OC)C2OC)c2ccc(OC)c(O)c24)cc1O (configuration not stated)
T/C (dose: 12.5 mg/kg/injection, schedule: Q01DX005 (ip), vehicle: Klucel (hydroxypropylcellulose) (HPC)): 100 % of control
T/C (dose: 25.0 mg/kg/injection, schedule: Q01DX005 (ip), vehicle: Klucel (hydroxypropylcellulose) (HPC)): 100 % of control
T/C (dose: 50.0 mg/kg/injection, schedule: Q01DX005 (ip), vehicle: Klucel (hydroxypropylcellulose) (HPC)): 97 % of control

NC(=O)/C=C/C(=O)c1c(Cl)cccc1Cl
T/C (dose: 1.56 mg/kg/injection, schedule: Q01DX009 (ip), vehicle: saline with Tween-80): 113 % of control
T/C (dose: 3.13 mg/kg/injection, schedule: Q01DX009 (ip), vehicle: saline with Tween-80): 111 % of control
T/C [1]: 94 % of control
T/C [2]: 86 % of control and 87 % of control
